Patent publication US9073914B2, “Substituted alkyl pyrimidin-4-one derivatives” (SANOFI, priority 2008, dated 2015)

How the values were obtained:
GSK3β = GSK3β (Homo sapiens, UniProt P49841); experiment: Inhibitory activity against GSK3β (33P-ATP phosphorylation of prephosphorylated GS1 peptide, four protocols); type: biochemical
Description: Test Example:Inhibitory Activity of the Medicament of the Present Invention Against GSK3β Four different protocols can be used. In a first protocol: 7.5 μM of prephosphorylated GS1 peptide and 10 μM ATP (containing 300,000 cpm of ^33P-ATP) were incubated in 25 mM Tris-HCl, pH 7.5, 0.6 mM DTT, 6 mM MgCl2, 0.6 mM EGTA, 0.05 mg/ml BSA buffer for 1 hour at room temperature in the presence of GSK3beta (total reaction volume: 100 microliters). In a second protocol: 4.1 μM of prephosphorylated GS1 peptide and 42 μM ATP (containing 260,000 cpm ^33P-ATP) were incubated in 80 mM Mes-NaOH, pH 6.5, 1 mM Mg acetate, 0.5 mM EGTA, 5 mM 2-mercaptoethanol, 0.02% Tween 20, 10% glycerol buffer for 2 hours at room temperature in the presence of GSK3beta. In a third protocol: 7.5 μM of prephosphorylated GS1 peptide and 10 μM ATP (containing 300,000 cpm of ^33P-ATP) were incubated in 50 mM Hepes, pH 7.2, 1 mM DTT, 1 mM MgCl2, 1 mM EGTA, 0.01% Tween 20 buffer for one hour at room temperature in the presence of GSK3beta (total reaction volume: 100 microliters). […] Incorporated ^33P radioactivity was determined by liquid scintillation spectrometry. […]

Sequence of GSK3β (P49841 whole entry): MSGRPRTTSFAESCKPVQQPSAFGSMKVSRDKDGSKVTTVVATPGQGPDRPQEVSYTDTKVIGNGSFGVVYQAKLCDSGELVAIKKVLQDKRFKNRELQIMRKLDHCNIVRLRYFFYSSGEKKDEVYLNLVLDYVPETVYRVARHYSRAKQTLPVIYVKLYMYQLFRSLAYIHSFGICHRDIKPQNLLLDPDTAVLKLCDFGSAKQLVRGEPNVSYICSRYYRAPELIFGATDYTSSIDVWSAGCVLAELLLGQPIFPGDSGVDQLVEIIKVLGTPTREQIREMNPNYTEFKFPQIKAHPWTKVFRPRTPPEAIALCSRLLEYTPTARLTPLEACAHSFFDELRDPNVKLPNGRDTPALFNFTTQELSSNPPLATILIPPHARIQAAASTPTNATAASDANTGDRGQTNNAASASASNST

`O=c1cc(-c2ccncn2)nc2n1CCCCC2C1CC1` (racemic) [Compound No 20 of table 2, (+/−)-10-Cyclopropyl-2-pyrimidin-4-yl-7,8,9,10-tetrahydro-6H-pyrimido[1,2-α]azepin-4-one] gave an IC50 (GSK3β; protocol 4 (commercial GSK3beta, Millipore; 10 μM ATP; 90 minutes)) of 8 nM and a melting point of 130 to 132 °C.
In the case of “(+/−)-9-Ethyl-4-oxo-2-pyrimidin-4-yl-5,6,8,9-tetrahydro-4H-1,4-a,7-triaza-benzocycloheptene-7-carboxylic acid ethyl ester [Compound No 1 of table 3]”, the “inhibition of GSK3β” value (GSK3β; at 1 μM) is reported as 63%.
